In ChEMBL document CHEMBL1201862, “PubChem BioAssay data set” (2004):
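Protocol summary: plate cells (96-well), add compound at 5 concentrations, incubate 48 h, interpolate endpoints linearly. At the GI50, growth is halved.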 Active and inactive are the calls of the source. Rule as the data show it: active = GI50 up to about 1.1 µM and inactive = higher.

How the values were obtained:
Assay in all cases: NCI tumour cell line growth inhibition, 48 h
RXF 393 = test system: RXF 393
SR = test system: SR
OVCAR-3 = test system: OVCAR-3
NCI-H460 = test system: NCI-H460
HL-60 = test system: HL-60
SF-539 = test system: SF-539
NCI-H23 = test system: NCI-H23
SF-268 = test system: SF-268
M14 = test system: M14
SNB-75 = test system: SNB-75
ACHN = test system: ACHN
HCC 2998 = test system: HCC 2998
LOX IMVI = test system: LOX IMVI
U-251 = test system: U-251
Malme-3M = test system: Malme-3M
A498 = test system: A498

## O=C(/C=C/c1ccccc1)Oc1cccc2cccnc12
RXF 393
  GI50: 21.1 µM (inactive)
SR
  GI50: 1.57 µM (inactive)
OVCAR-3
  GI50: 2.96 µM (inactive)
NCI-H460
  GI50: 3.62 µM (inactive)
HL-60
  GI50: 3.01 µM (inactive)
SF-539
  GI50: 3.93 µM (inactive)
NCI-H23
  GI50: 3.72 µM (inactive)
SF-268
  GI50: 2.23 µM (inactive)
M14
  GI50: 4.11 µM (inactive)
SNB-75
  GI50: 14.3 µM (inactive)
ACHN
  GI50: 20.3 µM (inactive)
HCC 2998
  GI50: 43.2 µM (inactive)
LOX IMVI
  GI50: 9.64 µM (inactive)
U-251
  GI50: 4.71 µM (inactive)
Malme-3M
  GI50: 3.8 µM (inactive)

## CNS(=O)(=O)NN(C)S(=O)(=O)c1ccccc1
RXF 393
  GI50: 0.472 µM (active)
SR
  GI50: > 100 µM (inactive)
NCI-H460
  GI50: 85.9 µM (inactive)
HL-60
  GI50: > 100 µM (inactive)
SF-539
  GI50: > 100 µM (inactive)
NCI-H23
  GI50: > 100 µM (inactive)
SF-268
  GI50: > 100 µM (inactive)
M14
  GI50: > 100 µM (inactive)
SNB-75
  GI50: > 100 µM (inactive)
ACHN
  GI50: > 100 µM (inactive)
A498
  GI50: > 100 µM (inactive)
HCC 2998
  GI50: > 100 µM (inactive)
LOX IMVI
  GI50: > 100 µM (inactive)
U-251
  GI50: > 100 µM (inactive)
Malme-3M
  GI50: > 100 µM (inactive)

## CC(Oc1ccc2c(-c3ccc(Cl)cc3)cc(=O)oc2c1)C(=O)O (stereo not drawn)
RXF 393
  GI50: > 100 µM (inactive)
SR
  GI50: > 100 µM (inactive)
OVCAR-3
  GI50: > 100 µM (inactive)
NCI-H460
  GI50: > 100 µM (inactive)
HL-60
  GI50: > 100 µM (inactive)
SF-539
  GI50: > 100 µM (inactive)
NCI-H23
  GI50: > 100 µM (inactive)
SF-268
  GI50: > 100 µM (inactive)
M14
  GI50: > 100 µM (inactive)
SNB-75
  GI50: > 100 µM (inactive)
ACHN
  GI50: > 100 µM (inactive)
A498
  GI50: > 100 µM (inactive)
HCC 2998
  GI50: > 100 µM (inactive)
LOX IMVI
  GI50: > 100 µM (inactive)
U-251
  GI50: > 100 µM (inactive)
Malme-3M
  GI50: > 100 µM (inactive)

## CC(C)(C)N/N=C(\C(=O)Nc1cccc(Cl)c1)C1C(=O)Nc2ccccc2[S+]1[O-] (stereo not drawn)
RXF 393
  GI50: > 100 µM (inactive)
SR
  GI50: > 100 µM (inactive)
OVCAR-3
  GI50: > 100 µM (inactive)
NCI-H460
  GI50: > 100 µM (inactive)
HL-60
  GI50: > 100 µM (inactive)
SF-539
  GI50: > 100 µM (inactive)
NCI-H23
  GI50: > 100 µM (inactive)
SF-268
  GI50: > 100 µM (inactive)
M14
  GI50: > 100 µM (inactive)
SNB-75
  GI50: > 100 µM (inactive)
ACHN
  GI50: > 100 µM (inactive)
HCC 2998
  GI50: > 100 µM (inactive)
LOX IMVI
  GI50: > 100 µM (inactive)
Malme-3M
  GI50: 21.6 µM (inactive)

## O=c1/c(=C/c2ccccc2[N+](=O)[O-])sc2nnc(-c3cccnc3)n12
RXF 393
  GI50: > 100 µM (inactive)
SR
  GI50: 76.7 µM (inactive)
OVCAR-3
  GI50: > 100 µM (inactive)
NCI-H460
  GI50: > 100 µM (inactive)
HL-60
  GI50: > 100 µM (inactive)
SF-539
  GI50: > 100 µM (inactive)
NCI-H23
  GI50: > 100 µM (inactive)
SF-268
  GI50: > 100 µM (inactive)
M14
  GI50: > 100 µM (inactive)
SNB-75
  GI50: > 100 µM (inactive)
ACHN
  GI50: > 100 µM (inactive)
A498
  GI50: > 100 µM (inactive)
HCC 2998
  GI50: > 100 µM (inactive)
LOX IMVI
  GI50: > 100 µM (inactive)
Malme-3M
  GI50: > 100 µM (inactive)

## O=c1n(-c2ccccc2)c(=O)n2n1C1C=CC2C2C(C1)C2(Cl)Cl (stereo not drawn)
RXF 393
  GI50: > 100 µM (inactive)
SR
  GI50: > 100 µM (inactive)
OVCAR-3
  GI50: > 100 µM (inactive)
NCI-H460
  GI50: > 100 µM (inactive)
HL-60
  GI50: > 100 µM (inactive)
SF-539
  GI50: > 100 µM (inactive)
SF-268
  GI50: > 100 µM (inactive)
M14
  GI50: > 100 µM (inactive)
SNB-75
  GI50: > 100 µM (inactive)
ACHN
  GI50: > 100 µM (inactive)
A498
  GI50: > 100 µM (inactive)
HCC 2998
  GI50: > 100 µM (inactive)
LOX IMVI
  GI50: > 100 µM (inactive)
U-251
  GI50: > 100 µM (inactive)
Malme-3M
  GI50: > 100 µM (inactive)

## [O-][n+]1c(-c2ccccc2)oc2ccccc21
RXF 393
  GI50: 21.2 µM (inactive)
SR
  GI50: > 100 µM (inactive)
OVCAR-3
  GI50: 18.5 µM (inactive)
NCI-H460
  GI50: 4.98 µM (inactive)
HL-60
  GI50: 5.28 µM (inactive)
SF-539
  GI50: 16.3 µM (inactive)
NCI-H23
  GI50: 11.3 µM (inactive)
SF-268
  GI50: 26.9 µM (inactive)
M14
  GI50: 11 µM (inactive)
SNB-75
  GI50: 16.7 µM (inactive)
ACHN
  GI50: 15 µM (inactive)
A498
  GI50: 17.9 µM (inactive)
HCC 2998
  GI50: 19.1 µM (inactive)
LOX IMVI
  GI50: 3.07 µM (inactive)
U-251
  GI50: 18.9 µM (inactive)
Malme-3M
  GI50: 13 µM (inactive)

## CCN(CC)CCNc1ccc2ncn3c4cc(O)ccc4c(=O)c1c23
RXF 393
  GI50: 0.536 µM (active)
SR
  GI50: 2.26 µM (inactive)
OVCAR-3
  GI50: 3.37 µM (inactive)
NCI-H460
  GI50: 3.04 µM (inactive)
HL-60
  GI50: 2.84 µM (inactive)
SF-539
  GI50: 3.25 µM (inactive)
NCI-H23
  GI50: 3.55 µM (inactive)
SF-268
  GI50: 2.09 µM (inactive)
M14
  GI50: 4.5 µM (inactive)
SNB-75
  GI50: 4.39 µM (inactive)
ACHN
  GI50: 1.61 µM (inactive)
A498
  GI50: 4.86 µM (inactive)
HCC 2998
  GI50: 3.84 µM (inactive)
LOX IMVI
  GI50: 1.87 µM (inactive)
U-251
  GI50: 1.53 µM (inactive)
Malme-3M
  GI50: 3.97 µM (inactive)

## c1cnc2c(c1)-n1cccc1C1(CCOCC1)NN2
RXF 393
  GI50: > 100 µM (inactive)
SR
  GI50: > 100 µM (inactive)
OVCAR-3
  GI50: > 100 µM (inactive)
NCI-H460
  GI50: > 100 µM (inactive)
HL-60
  GI50: > 100 µM (inactive)
SF-539
  GI50: > 100 µM (inactive)
NCI-H23
  GI50: > 100 µM (inactive)
SF-268
  GI50: > 100 µM (inactive)
M14
  GI50: > 100 µM (inactive)
SNB-75
  GI50: > 100 µM (inactive)
ACHN
  GI50: > 100 µM (inactive)
A498
  GI50: > 100 µM (inactive)
HCC 2998
  GI50: > 100 µM (inactive)
U-251
  GI50: > 100 µM (inactive)
Malme-3M
  GI50: > 100 µM (inactive)

## Fc1ccc2c(c1)cc1ccc3cccc4ccc2c1c34
RXF 393
  GI50: > 100 µM (inactive)
SR
  GI50: > 100 µM (inactive)
OVCAR-3
  GI50: > 100 µM (inactive)
HL-60
  GI50: > 100 µM (inactive)
SF-539
  GI50: > 100 µM (inactive)
NCI-H23
  GI50: > 100 µM (inactive)
SF-268
  GI50: > 100 µM (inactive)
M14
  GI50: > 100 µM (inactive)
SNB-75
  GI50: > 100 µM (inactive)
ACHN
  GI50: > 100 µM (inactive)
A498
  GI50: > 100 µM (inactive)
HCC 2998
  GI50: > 100 µM (inactive)
LOX IMVI
  GI50: > 100 µM (inactive)
U-251
  GI50: > 100 µM (inactive)
Malme-3M
  GI50: > 100 µM (inactive)

## CCOC(=O)C(=O)Nc1ccc(Cl)cc1C
RXF 393
  GI50: > 100 µM (inactive)
SR
  GI50: > 100 µM (inactive)
OVCAR-3
  GI50: > 100 µM (inactive)
NCI-H460
  GI50: > 100 µM (inactive)
HL-60
  GI50: > 100 µM (inactive)
SF-539
  GI50: > 100 µM (inactive)
NCI-H23
  GI50: > 100 µM (inactive)
SF-268
  GI50: > 100 µM (inactive)
M14
  GI50: > 100 µM (inactive)
SNB-75
  GI50: > 100 µM (inactive)
ACHN
  GI50: > 100 µM (inactive)
HCC 2998
  GI50: > 100 µM (inactive)
LOX IMVI
  GI50: > 100 µM (inactive)
U-251
  GI50: > 100 µM (inactive)
Malme-3M
  GI50: > 100 µM (inactive)

## O=C(CC1C(=O)Nc2ccccc2S1(=O)=O)Nc1cc(Cl)ccc1Cl (stereo not drawn)
RXF 393
  GI50: 15.8 µM (inactive)
SR
  GI50: 7.16 µM (inactive)
OVCAR-3
  GI50: 14.6 µM (inactive)
NCI-H460
  GI50: 13.6 µM (inactive)
HL-60
  GI50: 11.8 µM (inactive)
SF-539
  GI50: 2.4 µM (inactive)
NCI-H23
  GI50: 17.9 µM (inactive)
SF-268
  GI50: 10.8 µM (inactive)
M14
  GI50: 14.3 µM (inactive)
SNB-75
  GI50: 14.6 µM (inactive)
ACHN
  GI50: 17.2 µM (inactive)
A498
  GI50: 15.8 µM (inactive)
HCC 2998
  GI50: 20.5 µM (inactive)
LOX IMVI
  GI50: 5.37 µM (inactive)
U-251
  GI50: 10 µM (inactive)
Malme-3M
  GI50: 17.9 µM (inactive)

## C=C1C(=O)C23C(CC(OC(C)=O)C1[C@@H]2OC(C)=O)C1(C)C(OC(C)=O)CCC(C)(C)C1C[C@@H]3OC(C)=O (stereo partly drawn)
RXF 393
  GI50: 0.237 µM (active)
SR
  GI50: 1.57 µM (inactive)
OVCAR-3
  GI50: 1.66 µM (inactive)
NCI-H460
  GI50: 1.61 µM (inactive)
HL-60
  GI50: 0.0771 µM (active)
SF-539
  GI50: 1.76 µM (inactive)
SF-268
  GI50: 1.56 µM (inactive)
M14
  GI50: 1.56 µM (inactive)
SNB-75
  GI50: 1.52 µM (inactive)
ACHN
  GI50: 1.56 µM (inactive)
A498
  GI50: 1.95 µM (inactive)
HCC 2998
  GI50: 1.84 µM (inactive)
LOX IMVI
  GI50: 1.24 µM (inactive)
U-251
  GI50: 1.55 µM (inactive)
Malme-3M
  GI50: 1.55 µM (inactive)
